In brackets after ≈: the same amount, converted by molar mass. Where two headings read alike, the source gives them in different places.
What was measured:
P. Aeruginosa PAO1 [1] = experiment: Intrinsic MIC assay (broth microdilution), P. aeruginosa PAO1; type: cell-based, Pseudomonas aeruginosa; settings: for MIC: Pseudomonas aeruginosa, read-out: Intrinsic MIC; for Intrinsic MIC, second value printed in parentheses: not explained
Procedure: (§1) MIC assays were conducted in accordance with Clinical and Laboratory Standards Institute (CLSI) guidelines for broth microdilution.
(§2) The intrinsic MIC of the experimental EPIs was tested with the method described. The 2-fold serial dilution begins with 100 μg/mL of tested compound in the first column of the 96-well plates. The following Gram-negative bacterial strains were included in these assays: • Escherichia coli ATCC 25922 • Klebsiella pneumoniae ATCC 13883 and ATCC 10031 • Pseudomonas aeruginosa ATCC 27853. • Pseudomonas aeruginosa PAO1 • Acinetobacter baumannii ATCC 19606

P. Aeruginosa PAO1 [2] = experiment: MIC assay in the presence of a bacterial efflux pump inhibitor (EPI), P. aeruginosa PAO1; type: cell-based, Pseudomonas aeruginosa; settings: in the presence of 12.5 μg/ml of N-(((2S,4R)-4-(aminomethyl)pyrrolidin-2-yl)methyl)-6-(4-fluorophenyl)-1H-indole-2-carboxamide
Procedure: The ability of a compound to produce an antibiotic effect can be determined using a method as described in Example 11. Data for representative compounds used in combination with the bacterial efflux pump inhibitor (EPI) N-(((2S,4R)-4-(aminomethyl)pyrrolidin-2-yl)methyl)-6-(4-fluorophenyl)-1H-indole-2-carboxamide is shown in Table 1.
as §1
The EPI assay for the purposes of these studies represents a MIC assay in which the MIC of the antibiotic against the bacteria is tested in the presence of an experimental efflux pump inhibitor (EPI). The highest concentration of the EPI present in the assay typically is ½ of the intrinsic MIC of the compound. […] Using serial dilutions of the EPI, its enhancement of antibiotic activity was then evaluated. The relative EPI activity was decided by comparing the MIC of the antibiotic in the presence of the EPI compound with the intrinsic MIC of the antibiotic alone. For comparative purposes, we generally used EPIs at concentration of 12.5 and 6.25 μg/ml against varying concentration of our test antibiotic.

E. coli ATCC 25922 = experiment: Intrinsic MIC assay (broth microdilution), E. coli; type: cell-based, Escherichia coli; settings: Escherichia coli
Procedure: as §1, §2

K. pneumoniae ATCC 10031 = experiment: Intrinsic MIC assay (broth microdilution), K. pneumoniae; type: cell-based, Klebsiella pneumoniae; settings: Klebsiella pneumoniae
Procedure: as §1, §2

A. baumannii ATCC 19606 = experiment: Intrinsic MIC assay (broth microdilution), A. baumannii; type: cell-based, Acinetobacter baumannii; settings: Acinetobacter baumannii
Procedure: as §1, §2

[3] = 18 h, P. Aeruginosa PAO1, without EPI
[4] = ATCC25922, E. coli ATCC 25922, read-out: Intrinsic MIC
[5] = ATCC10031, K. pneumoniae ATCC 10031, read-out: Intrinsic MIC
[6] = ATCC19606, A. baumannii ATCC 19606, read-out: Intrinsic MIC
[7] = P. Aeruginosa PAO1, without EPI
[8] = ATCC25922, read-out: Intrinsic MIC
[9] = ATCC10031, read-out: Intrinsic MIC
[10] = ATCC19606, read-out: Intrinsic MIC

| SMILES | MIC (P. Aeruginosa PAO1 [1]; [3]) | MIC in the Presence of EPI* (P. Aeruginosa PAO1 [2]) | MIC (E. coli ATCC 25922; [4]) | MIC (K. pneumoniae ATCC 10031; [5]) | MIC (A. baumannii ATCC 19606; [6]) | Intrinsic MIC (P. Aeruginosa PAO1 [1]; [7]) | MIC (P. Aeruginosa PAO1 [1]; PAO1, 18 h) | MIC (E. coli ATCC 25922; [8]) | MIC (K. pneumoniae ATCC 10031; [9]) | MIC (A. baumannii ATCC 19606; [10]) | Intrinsic MIC, second value printed in parentheses (P. Aeruginosa PAO1 [1]; [7]) |
| --- | --- | --- | --- | --- | --- | --- | --- | --- | --- | --- | --- |
| NCc1cc2cc(Br)ccc2[nH]1 [Example 14, (5-Bromo-1H-indol-2-yl)methanamine] | 128 µg/mL (≈ 569 µM) | 8 µg/mL | 128 µg/mL (≈ 569 µM) | 64 µg/mL (≈ 284 µM) | 64 µg/mL (≈ 284 µM) | – | – | – | – | – | – |
| CC(N)c1cc2c(Cl)cc(Cl)cc2[nH]1 (centres unmarked) [Example 15, 1-(4,6-Dichloro-1H-indol-2-yl)ethan-1-amine] | – | 16 µg/mL | 128 µg/mL (≈ 559 µM) | 64 µg/mL (≈ 279 µM) | 32 µg/mL (≈ 140 µM) | 256 µg/mL | – | – | – | – | – |
| CC(c1cc2cc(Br)ccc2[nH]1)N(C)C (centres unmarked) [Example 16, 1-(5-Bromo-1H-indol-2-yl)-N,N-dimethylethan-1-amine] | 256 µg/mL (≈ 958 µM) | 64 µg/mL | 256 µg/mL (≈ 958 µM) | 256 µg/mL (≈ 958 µM) | 128 µg/mL (≈ 479 µM) | – | – | – | – | – | – |
| CC(N)c1cc2cc(F)c(F)cc2[nH]1 (centres unmarked) [Example 17, 1-(5,6-Difluoro-1H-indol-2-yl)ethan-1-amine] | – | 8 µg/mL | 256 µg/mL (≈ 1300 µM) | 128 µg/mL (≈ 652 µM) | 128 µg/mL (≈ 652 µM) | 256 µg/mL | – | – | – | – | – |
| NC1CCc2c1[nH]c1ccc(Br)cc21 (centres unmarked) [Example 18, 7-Bromo-1,2,3,4-tetrahydrocyclopenta[b]indol-3-amine] | 128 µg/mL (≈ 510 µM) | 2 µg/mL | 32 µg/mL (≈ 127 µM) | 32 µg/mL (≈ 127 µM) | 64 µg/mL (≈ 255 µM) | – | – | – | – | – | – |
| NC1CCCCc2c1[nH]c1ccc(Br)cc21 (centres unmarked) [Example 19, 2-Bromo-5,6,7,8,9,10-hexahydrocyclohepta[b]indol-6-amine] | 128 µg/mL (≈ 458 µM) | 4 µg/mL | 16 µg/mL (≈ 57.3 µM) | 16 µg/mL (≈ 57.3 µM) | 16 µg/mL (≈ 57.3 µM) | – | – | – | – | – | – |
| NC1CCCCc2c1[nH]c1ccc(Cl)c(Cl)c21 (centres unmarked) [Example 20, 1,2-Dichloro-5,6,7,8,9,10-hexahydrocyclohepta[b]indol-6-amine hydrochloric acid] | – | 1 µg/mL | – | – | – | – | 32 µg/mL (≈ 119 µM) | 8 µg/mL (≈ 29.7 µM) | 2 µg/mL (≈ 7.43 µM) | 8 µg/mL (≈ 29.7 µM) | – |
| NC1CCCCc2c1[nH]c1cc(Cl)c(Cl)cc21 (centres unmarked) [Example 21, 2,3-Dichloro-5,6,7,8,9,10-hexahydrocyclohepta[b]indol-6-amine hydrochloric acid] | – | 32 µg/mL | – | – | – | – | 256 µg/mL (≈ 951 µM) | 16 µg/mL (≈ 59.4 µM) | 8 µg/mL (≈ 29.7 µM) | 16 µg/mL (≈ 59.4 µM) | – |
| NC1CCc2c1[nH]c1ccc(Cl)c(Cl)c21 (centres unmarked) [Example 22, 7,8-Dichloro-1,2,3,4-tetrahydrocyclopenta[b]indol-3-amine] | – | 1 µg/mL | 16 µg/mL (≈ 66.4 µM) | 8 µg/mL (≈ 33.2 µM) | 8 µg/mL (≈ 33.2 µM) | 32 µg/mL | – | – | – | – | – |
| NC1CCc2c1[nH]c1cc(Cl)c(Cl)cc21 (centres unmarked) [Example 23, 6,7-Dichloro-1,2,3,4-tetrahydrocyclopenta[b]indol-3-amine] | 64 µg/mL (≈ 265 µM) | 8 µg/mL | 16 µg/mL (≈ 66.4 µM) | 8 µg/mL (≈ 33.2 µM) | 16 µg/mL (≈ 66.4 µM) | – | – | – | – | – | – |
| CC(NCCCN)c1cc2cc(Br)ccc2[nH]1 (centres unmarked) [Example 24, N^1-(1-(5-Bromo-1H-indol-2-yl)ethyl)propane-1,3-diamine] | 64 µg/mL (≈ 216 µM) | – | – | 64 µg/mL (≈ 216 µM) | 256 µg/mL (≈ 864 µM) | – | – | – | – | – | 128 µg/mL |
| CC(NCCCNC(=O)c1ccc(Cl)s1)c1cc2cc(Br)ccc2[nH]1 (centres unmarked) [Example 27, N-(3-((1-(5-Bromo-1H-indol-2-yl)ethyl)amino)propyl)-5-chlorothiophene-2-carboxamide] | 32 µg/mL (≈ 72.6 µM) | 64 µg/mL | – | 8 µg/mL (≈ 18.1 µM) | – | – | – | – | – | – | > 256 µg/mL |
| NCCCNC1CCCCc2c1[nH]c1ccc(Br)cc21 (centres unmarked) [Example 28, N^1-(2-Bromo-5,6,7,8,9,10-hexahydrocyclohepta[b]indol-6-yl)propane-1,3-diamine] | 64 µg/mL (≈ 190 µM) | – | 16 µg/mL (≈ 47.6 µM) | 8 µg/mL (≈ 23.8 µM) | 32 µg/mL (≈ 95.2 µM) | – | – | – | – | – | 32 µg/mL |
| NCCCNC1CCc2c1[nH]c1ccc(Br)cc21 (centres unmarked) [Example 29, N^1-(7-Bromo-1,2,3,4-tetrahydrocyclopenta[b]indol-3-yl)propane-1,3-diamine] | 64 µg/mL (≈ 208 µM) | – | 64 µg/mL (≈ 208 µM) | 32 µg/mL (≈ 104 µM) | 256 µg/mL (≈ 831 µM) | – | – | – | – | – | 128 µg/mL |
